Paper PMC10794137, “A new antibiotic traps lipopolysaccharide in its intermembrane transporter” (Nature, 2024)
“And” between values parts separate entries of the source, which are not always exact repeats. Equal values may be shown once.

What was measured:
[1] = system: Acinetobacter baylyi ΔlpxM; test: MIC by broth microdilution, A. baylyi ΔlpxM; format: cell-based
Experimental: (§1) Culture, genetic manipulation and MIC measurements of A. baylyi ADP1 were conducted according to previously reported procedures[46],[51]. Point mutants were constructed in a two-step procedure following ref. [52] with the introduction and excision of the integration cassette at codon 66 of pepA, wherein the excising fragment of otherwise wild-type chromosomal DNA sequence from codon 406 of pepA to codon 193 of lptG bore the desired mutation and the resulting clones were screened by amplicon sequencing from codon 81 of HolC to codon 501 of GpmI, whereas lpxM deletion was achieved following the same procedure except that the integration cassette insertion and excision removed codons 79–279 of lpxM to avoid interference with neighbouring and overlapping genes that a larger deletion may risk and replaced codon 78 with an ochre stop codon to prevent a readthrough resulting in an aberrant fusion, with the excising fragment sequence spanning from codon 211 of sppA to codon 497 of ComA and verified by amplicon sequencing from codon 94 of MhpC to codon 327 of ComA as well as by absence of a PCR product corresponding to a region spanning codons 79 to 279 of lpxM to check for duplications. A deletion of the lon protease was made in the same manner to produce the stain used for expression and purification of LptB2FG to mimic the BL21 strain of E. coli used in the rest of purifications, for which the region encompassing 72 base pairs (bp) upstream of the lon start codon and 1 bp downstream of the lon stop codon was excised after being replaced with the same integration cassette, yielding a markerless deletion, with the excising fragment sequence spanning from codon 491 of ArnT to codon 40 of 45_DOPA_Dioxygenase and verified by amplicon sequencing spanning from codon 322 of ArnT to codon 221 of 45_DOPA_Dioxygenase as well as by absence of a PCR product corresponding to a region spanning from codons 328 to 768 of lon to check for duplications. Following amplicon confirmation, three validated isolates of each constructed mutant were tested for susceptibility to a panel of antibiotics with […] known mechanisms of action as a further validation step to ensure congruence of phenotypes across replicates, which was confirmed in all cases and one of the validated replicates was later used for MIC measurements reported here.
(§2) MIC determinations were performed by broth microdilution in line with CLSI guidelines (CLSI M07-A11 2018). Bacterial inocula were prepared by diluting overnight liquid cultures in LB. Antibacterial panels containing antibacterial solutions were inoculated with an appropriate volume of inoculum to give a final inoculum of about 5 × 10^5 c.f.u. ml^−1 and desired test concentrations of antibacterial agents in standard 96-well plates with 0.1 ml of culture per well. The test plates were incubated for 20–24 h and optical density (OD600) was recorded using a plate reader. MIC values corresponded to the lowest compound concentration inhibiting bacterial growth beyond which OD ceased to decrease.

[2] = system: Acinetobacter baylyi ΔLpxC; format: cell-based; conditions: A. baylyi ΔLpxC (lacking LPS)
Experimental: as §1, §2

In the case of `CN1C(=O)[C@H](CCCCN)NC(=O)[C@H](CCCN)NCc2cccnc2Sc2c(Cl)ccc(-c3ccc(N)nc3)c2CNC(=O)[C@@H]1Cc1c[nH]c2ccccc12` [Compound 1], the “Fold less susceptible than wild type” value ([1]; A. baylyi lpxM deletion strain vs wild type) is reported as 30 fold, the MIC ([1]; A. baylyi ΔlpxM) is reported as 0.3 µM and 0.2 µg/mL and the MIC [2] is reported as > 50 µM and > 40 µg/mL.
